The subject of the assay is CD2F1 mice, L1210 leukemia sc, survival T/C. Briefly: NCI In Vivo Anticancer Drug Screen. Data for tumor model L1210 Leukemia (subcutaneous) in CD2F1 (CDF1) mice. To be noted: endpoint: median survival time, higher = longer survival. The method, boiled down: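 Transplantable tumor-bearing mice were treated with compound; survival or tumor size measured and expressed as treated-group value (T) divided by vehicle-treated control value (C).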

Several values for one entry are separate records, joined by “and”; a condition that tells them apart may be missing. Identical values can stand only once. Toxic doses and inconclusive results are not listed.

Turning to `Oc1ccc(F)c2cccnc12`, the T/C is, setting by setting: (dose: 39.0 mg/kg/injection, schedule: Q01DX Z (sc), vehicle: other) 100 % of control; (dose: 65.0 mg/kg/injection, schedule: Q01DX Z (sc), vehicle: other) 100 % of control; (dose: 108.0 mg/kg/injection, schedule: Q01DX Z (sc), vehicle: other) 100 % of control; (dose: 180.0 mg/kg/injection, schedule: Q01DX Z (sc), vehicle: other) 100 % of control.
`FC(F)(F)c1nc2nc(Cl)c(Cl)nc2[nH]1`: the T/C (dose: 30.0 mg/kg/injection, schedule: Q04DX003 (ip), vehicle: saline with Tween-80) was 104 % of control; the T/C (dose: 44.0 mg/kg/injection, schedule: Q04DX003 (ip), vehicle: saline with Tween-80) was 106 % of control; the T/C (dose: 66.0 mg/kg/injection, schedule: Q04DX003 (ip), vehicle: saline with Tween-80) is 106 % of control.
Consider `O=C1c2ccccc2C(=O)c2c(NCCNCCO)ccc(NCCNCCO)c21`, for which the T/C is, setting by setting: (dose: 0.5 mg/kg/injection, schedule: Q01DX009 (ip), vehicle: saline with Tween-80) 97 % of control; (dose: 0.5 mg/kg/injection, schedule: Q01DX009 (ip), vehicle: saline) 97 % of control; (dose: 1.0 mg/kg/injection, schedule: Q01DX009 (ip), vehicle: saline with Tween-80) 98 % of control; (dose: 1.0 mg/kg/injection, schedule: Q01DX009 (ip), vehicle: saline) 102 % of control and 106 % of control and 86 % of control; (dose: 2.0 mg/kg/injection, schedule: Q01DX009 (ip), vehicle: saline with Tween-80) 101 % of control; (dose: 2.0 mg/kg/injection, schedule: Q01DX009 (ip), vehicle: saline) 102 % of control and 108 % of control. For the same compound, the T/C was 98 % of control (dose: 4.0 mg/kg/injection, schedule: Q01DX009 (ip), vehicle: Klucel (hydroxypropylcellulose) (HPC)); 105 % of control and 97 % of control (dose: 4.0 mg/kg/injection, schedule: Q01DX009 (ip), vehicle: saline); 101 % of control (dose: 4.0 mg/kg/injection, schedule: Q01DX009 (ip), vehicle: water); 94 % of control (dose: 4.0 mg/kg/injection, schedule: Q01DX009 (oral), vehicle: saline); 114 % of control and 124 % of control (dose: 4.0 mg/kg/injection, schedule: Q01DX009 (sc), vehicle: Klucel (hydroxypropylcellulose) (HPC)); 99 % of control (dose: 8.0 mg/kg/injection, schedule: Q01DX005 (oral), vehicle: Klucel (hydroxypropylcellulose) (HPC)). The T/C is 96 % of control (dose: 8.0 mg/kg/injection, schedule: Q01DX005 (oral), vehicle: water); 122 % of control and 112 % of control (dose: 8.0 mg/kg/injection, schedule: Q01DX009 (ip), vehicle: Klucel (hydroxypropylcellulose) (HPC)); 93 % of control (dose: 8.0 mg/kg/injection, schedule: Q01DX009 (ip), vehicle: saline); 104 % of control (dose: 8.0 mg/kg/injection, schedule: Q01DX009 (ip), vehicle: water); 96 % of control (dose: 8.0 mg/kg/injection, schedule: Q01DX009 (oral), vehicle: saline); 156 % of control (dose: 8.0 mg/kg/injection, schedule: Q01DX009 (sc), vehicle: water). Besides, the T/C (dose: 16.0 mg/kg/injection, schedule: Q01DX005 (oral), vehicle: Klucel (hydroxypropylcellulose) (HPC)) was 106 % of control; the T/C (dose: 16.0 mg/kg/injection, schedule: Q01DX005 (oral), vehicle: water) is 96 % of control; the T/C (dose: 16.0 mg/kg/injection, schedule: Q01DX009 (ip), vehicle: Klucel (hydroxypropylcellulose) (HPC)) is 108 % of control; the T/C (dose: 16.0 mg/kg/injection, schedule: Q01DX009 (ip), vehicle: water) is 102 % of control; the T/C (dose: 16.0 mg/kg/injection, schedule: Q01DX009 (oral), vehicle: saline) is 96 % of control; the T/C (dose: 16.0 mg/kg/injection, schedule: Q01DX009 (sc), vehicle: Klucel (hydroxypropylcellulose) (HPC)) was 177 % of control and 122 % of control and 243 % of control. The T/C is, setting by setting: (dose: 16.0 mg/kg/injection, schedule: Q01DX009 (sc), vehicle: water) 578 % of control; (dose: 32.0 mg/kg/injection, schedule: Q01DX005 (oral), vehicle: Klucel (hydroxypropylcellulose) (HPC)) 103 % of control; (dose: 32.0 mg/kg/injection, schedule: Q01DX005 (oral), vehicle: water) 99 % of control; (dose: 32.0 mg/kg/injection, schedule: Q01DX009 (ip), vehicle: Klucel (hydroxypropylcellulose) (HPC)) 120 % of control and 119 % of control; (dose: 32.0 mg/kg/injection, schedule: Q01DX009 (ip), vehicle: saline) 104 % of control; (dose: 32.0 mg/kg/injection, schedule: Q01DX009 (ip), vehicle: water) 111 % of control. Also, the T/C is 94 % of control (dose: 32.0 mg/kg/injection, schedule: Q01DX009 (oral), vehicle: saline); 200 % of control and 225 % of control (dose: 32.0 mg/kg/injection, schedule: Q01DX009 (sc), vehicle: Klucel (hydroxypropylcellulose) (HPC)); 243 % of control (dose: 32.0 mg/kg/injection, schedule: Q01DX009 (sc), vehicle: water); 93 % of control (dose: 64.0 mg/kg/injection, schedule: Q01DX005 (oral), vehicle: Klucel (hydroxypropylcellulose) (HPC)); 103 % of control (dose: 64.0 mg/kg/injection, schedule: Q01DX005 (oral), vehicle: water); 108 % of control and 89 % of control (dose: 64.0 mg/kg/injection, schedule: Q01DX009 (ip), vehicle: saline). Moreover, the T/C runs as follows: (dose: 64.0 mg/kg/injection, schedule: Q01DX009 (oral), vehicle: saline) 97 % of control; (dose: 64.0 mg/kg/injection, schedule: Q01DX009 (sc), vehicle: Klucel (hydroxypropylcellulose) (HPC)) 92 % of control; (dose: 128.0 mg/kg/injection, schedule: Q01DX005 (oral), vehicle: Klucel (hydroxypropylcellulose) (HPC)) 97 % of control; (dose: 128.0 mg/kg/injection, schedule: Q01DX005 (oral), vehicle: water) 99 % of control; (dose: 128.0 mg/kg/injection, schedule: Q01DX009 (ip), vehicle: Klucel (hydroxypropylcellulose) (HPC)) 122 % of control; (dose: 128.0 mg/kg/injection, schedule: Q01DX009 (ip), vehicle: saline) 101 % of control. The T/C is 114 % of control (dose: 128.0 mg/kg/injection, schedule: Q01DX009 (ip), vehicle: water); 102 % of control (dose: 128.0 mg/kg/injection, schedule: Q01DX009 (oral), vehicle: saline); 211 % of control (dose: 128.0 mg/kg/injection, schedule: Q01DX009 (sc), vehicle: Klucel (hydroxypropylcellulose) (HPC)); 98 % of control (dose: 256.0 mg/kg/injection, schedule: Q01DX005 (oral), vehicle: Klucel (hydroxypropylcellulose) (HPC)); 101 % of control (dose: 256.0 mg/kg/injection, schedule: Q01DX009 (oral), vehicle: saline); 93 % of control (dose: 512.0 mg/kg/injection, schedule: Q01DX009 (oral), vehicle: saline).
Regarding `Nc1nc(=S)c2[nH]cnc2[nH]1`, the T/C by setting is: (dose: 2.16 mg/kg/injection, schedule: Q01DX Z (sc), vehicle: other) 177 % of control; (dose: 3.6 mg/kg/injection, schedule: Q01DX Z (sc), vehicle: other) 177 % of control; (dose: 6.0 mg/kg/injection, schedule: Q01DX Z (sc), vehicle: other) 177 % of control; (dose: 10.1 mg/kg/injection, schedule: Q01DX Z (sc), vehicle: other) 166 % of control; (dose: 16.9 mg/kg/injection, schedule: Q01DX Z (sc), vehicle: other) 161 % of control.
